From PubChem BioAssay (NCI)
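Exposure lasted 48 hours, with cells grown in 96-well plates and compounds tested at five concentrations. The concentration for 50% growth inhibition is given as GI50. Definition used: TGI = concentration required for complete inhibition of growth.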

Columns and labels:
Assay in all cases: NCI anticancer screen, dose series, 48 h
[1] = test system: OVCAR-8 ovarian
[2] = test system: OVCAR-4 ovarian
[3] = test system: SF-268 CNS
[4] = test system: CAKI-1 renal
[5] = test system: SK-MEL-28 melanoma
[6] = test system: OVCAR-5 ovarian
[7] = test system: UO-31 renal
[8] = test system: HCC-2998 colon
[9] = test system: UACC-257 melanoma
[10] = test system: EKVX NSCLC
[11] = test system: SK-MEL-5 melanoma
[12] = test system: LOX IMVI melanoma
[13] = test system: IGROV1 ovarian
[14] = test system: DMS 114 small cell lung
[15] = test system: NCI-H226 lung
[16] = test system: 786-0 renal
[17] = test system: SW-620 colon
[18] = test system: COLO 205 colon
[19] = test system: SNB-75 CNS
[20] = test system: U251 CNS
[21] = test system: SN12C renal
[22] = test system: HCT-116 colon
[23] = test system: CCRF-CEM leukemia
[24] = test system: OVCAR-3 ovarian
[25] = test system: A549 NSCLC
[26] = test system: SNB-19 CNS
[27] = test system: SR leukemia
[28] = test system: NCI-H460 lung
[29] = test system: HCT-15 colon
[30] = test system: KM12 colon
[31] = test system: HOP-18 NSCLC
[32] = test system: DLD-1 colon
[33] = test system: DMS 273 small cell lung
[34] = test system: M14 melanoma
[35] = test system: TK-10 renal
[36] = test system: SNB-78 CNS
[37] = test system: KM20L2 colon
[38] = test system: UACC-62 melanoma
[39] = test system: NCI-H23 lung
[40] = test system: HT29 colon
[41] = test system: SF-539 CNS
[42] = test system: SF-295 CNS
[43] = test system: SK-OV-3 ovarian
[44] = test system: SK-MEL-2 melanoma
[45] = test system: M19-MEL melanoma
[46] = test system: MALME-3M melanoma
[47] = test system: RXF 393 renal
[48] = test system: A498 renal
[49] = test system: XF 498 CNS
[50] = test system: ACHN renal
[51] = test system: NCI-H522 lung
[52] = test system: RXF-631 renal
[53] = test system: LXFL 529 NSCLC
[54] = test system: HOP-62 NSCLC
[55] = test system: K-562 leukemia
[56] = test system: HL-60(TB) leukemia
[57] = test system: MOLT-4 leukemia
[58] = test system: RPMI-8226 leukemia

## Clc1ccc([O][In]([O]c2ccc(Cl)cn2)[O]c2ccc(Cl)cn2)nc1
[1]
  GI50: > 100 µM
  TGI: > 100 µM
[2]
  GI50: > 100 µM
  TGI: > 100 µM
[3]
  GI50: > 100 µM
  TGI: > 100 µM
[4]
  GI50: > 100 µM
  TGI: > 100 µM
[5]
  GI50: > 100 µM
  TGI: > 100 µM
[6]
  GI50: > 100 µM
  TGI: > 100 µM
[7]
  GI50: > 100 µM
  TGI: > 100 µM
[8]
  GI50: > 100 µM
  TGI: > 100 µM
[9]
  GI50: > 100 µM
  TGI: > 100 µM
[10]
  GI50: > 100 µM
  TGI: > 100 µM
[11]
  GI50: 15.8 µM
  TGI: 76.8 µM
[12]
  GI50: > 100 µM
  TGI: > 100 µM
[13]
  GI50: > 100 µM
  TGI: > 100 µM
[14]
  GI50: > 100 µM
  TGI: > 100 µM
[15]
  GI50: > 100 µM
  TGI: > 100 µM
[16]
  GI50: > 100 µM
  TGI: > 100 µM
[17]
  GI50: > 100 µM
  TGI: > 100 µM
[18]
  GI50: > 100 µM
  TGI: > 100 µM
[19]
  GI50: > 100 µM
  TGI: > 100 µM
[20]
  GI50: > 100 µM
  TGI: > 100 µM
[21]
  GI50: > 100 µM
  TGI: > 100 µM
[22]
  GI50: > 100 µM
  TGI: > 100 µM
[23]
  GI50: > 100 µM
  TGI: > 100 µM
[24]
  GI50: > 100 µM
  TGI: > 100 µM
[25]
  GI50: > 100 µM
  TGI: > 100 µM
[26]
  GI50: > 100 µM
  TGI: > 100 µM
[27]
  GI50: > 100 µM
  TGI: > 100 µM
[28]
  GI50: > 100 µM
  TGI: > 100 µM
[29]
  GI50: > 100 µM
  TGI: > 100 µM
[30]
  GI50: > 100 µM
  TGI: > 100 µM
[31]
  GI50: > 100 µM
  TGI: > 100 µM
[32]
  GI50: > 100 µM
  TGI: > 100 µM
[33]
  GI50: > 100 µM
  TGI: > 100 µM
[34]
  GI50: > 100 µM
  TGI: > 100 µM
[35]
  GI50: > 100 µM
  TGI: > 100 µM
[36]
  GI50: > 100 µM
  TGI: > 100 µM
[37]
  GI50: > 100 µM
  TGI: > 100 µM
[38]
  GI50: > 100 µM
  TGI: > 100 µM
[39]
  GI50: > 100 µM
  TGI: > 100 µM
[40]
  GI50: > 100 µM
  TGI: > 100 µM
[41]
  GI50: > 100 µM
  TGI: > 100 µM
[42]
  GI50: 25.2 µM
  TGI: 47.5 µM
[43]
  GI50: 64.4 µM
  TGI: > 100 µM
[44]
  GI50: > 100 µM
  TGI: > 100 µM
[45]
  GI50: > 100 µM
  TGI: > 100 µM
[46]
  GI50: > 100 µM
  TGI: > 100 µM
[47]
  GI50: > 100 µM
  TGI: > 100 µM

## CCc1ccccc1NC(=O)C(=O)C(C(=O)c1ccc(OC)cc1)c1ccc(OC)cc1 (stereo not given)
[1]
  TGI: > 100 µM
[2]
  TGI: > 100 µM
[3]
  TGI: > 100 µM
[4]
  TGI: > 100 µM
[48]
  TGI: > 100 µM
[6]
  TGI: > 100 µM
[7]
  TGI: > 100 µM
[8]
  TGI: > 100 µM
[9]
  TGI: > 100 µM
[10]
  TGI: > 100 µM
[11]
  TGI: > 100 µM
[12]
  TGI: > 100 µM
[13]
  TGI: > 100 µM
[49]
  TGI: > 100 µM
[50]
  TGI: > 100 µM
[14]
  TGI: > 100 µM
[15]
  TGI: > 100 µM
[16]
  TGI: > 100 µM
[51]
  TGI: > 100 µM
[17]
  TGI: > 100 µM
[52]
  TGI: > 100 µM
[18]
  TGI: > 100 µM
[53]
  TGI: > 100 µM
[20]
  TGI: > 100 µM
[21]
  TGI: > 100 µM
[54]
  TGI: > 100 µM
[22]
  TGI: > 100 µM
[23]
  TGI: > 100 µM
[24]
  TGI: > 100 µM
[25]
  TGI: > 100 µM
[26]
  TGI: > 100 µM
[55]
  TGI: > 100 µM
[28]
  TGI: > 100 µM
[29]
  TGI: > 100 µM
[30]
  TGI: > 100 µM
[31]
  TGI: > 100 µM
[32]
  TGI: > 100 µM
[33]
  TGI: > 100 µM
[56]
  TGI: > 100 µM
[34]
  TGI: > 100 µM
[57]
  TGI: > 100 µM
[35]
  TGI: > 100 µM
[36]
  TGI: > 100 µM
[37]
  TGI: > 100 µM
[38]
  TGI: > 100 µM
[39]
  TGI: > 100 µM
[40]
  TGI: > 100 µM
[41]
  TGI: > 100 µM
[42]
  TGI: > 100 µM
[43]
  TGI: > 100 µM
[58]
  TGI: > 100 µM
[44]
  TGI: > 100 µM
[46]
  TGI: > 100 µM

## COc1ccc(C2C(Cl)C(=O)N2n2cnc3ccccc3c2=O)cc1OC (stereo not given)
[1]
  TGI: > 100 µM
[2]
  TGI: > 100 µM
[3]
  TGI: > 100 µM
[4]
  TGI: > 100 µM
[5]
  TGI: > 100 µM
[6]
  TGI: > 100 µM
[7]
  TGI: > 100 µM
[8]
  TGI: > 100 µM
[9]
  TGI: > 100 µM
[10]
  TGI: > 100 µM
[11]
  TGI: > 100 µM
[12]
  TGI: > 100 µM
[13]
  TGI: > 100 µM
[49]
  TGI: > 100 µM
[50]
  TGI: > 100 µM
[14]
  TGI: > 100 µM
[15]
  TGI: > 100 µM
[16]
  TGI: > 100 µM
[51]
  TGI: > 100 µM
[17]
  TGI: > 100 µM
[18]
  TGI: > 100 µM
[19]
  TGI: 84.7 µM
[53]
  TGI: > 100 µM
[20]
  TGI: > 100 µM
[21]
  TGI: > 100 µM
[54]
  TGI: > 100 µM
[22]
  TGI: > 100 µM
[24]
  TGI: > 100 µM
[25]
  TGI: > 100 µM
[26]
  TGI: > 100 µM
[27]
  TGI: > 100 µM
[55]
  TGI: > 100 µM
[28]
  TGI: > 100 µM
[29]
  TGI: > 100 µM
[30]
  TGI: > 100 µM
[31]
  TGI: > 100 µM
[33]
  TGI: > 100 µM
[56]
  TGI: > 100 µM
[34]
  TGI: > 100 µM
[57]
  TGI: > 100 µM
[35]
  TGI: > 100 µM
[36]
  TGI: > 100 µM
[37]
  TGI: > 100 µM
[38]
  TGI: > 100 µM
[39]
  TGI: > 100 µM
[40]
  TGI: > 100 µM
[42]
  TGI: > 100 µM
[43]
  TGI: > 100 µM
[58]
  TGI: > 100 µM
[44]
  TGI: > 100 µM
[45]
  TGI: > 100 µM
[46]
  TGI: > 100 µM
[47]
  TGI: > 100 µM
